According to ChEMBL document CHEMBL1155214, “Structure-affinity relationships of glutamine mimics incorporated into phosphopeptides targeted to the SH2 domain of signal transducer and activator of transcription 3” (J Med Chem, 2009):

Legend:
[1] = target: T1, Signal transducer and activator of transcription 3 (Homo sapiens, UniProt P40763); assay: Inhibition of Stat3 SH2 domain by fluorescence polarization assay
[2] = target: T1, Signal transducer and activator of transcription 3; assay: Ratio of compound IC50 to 4-(3-((S)-1-((S)-2-((S)-5-amino-1-(benzylamino)-1,5-dioxopentan-2-ylcarbamoyl)pyrrolidin-1-yl)-4-methyl-1-oxopentan-2-ylamino)-3-oxoprop-1-enyl)phenyl dihydrogen phosphate IC50 for Stat3 SH2 domain

T1 sequence (P40763 whole entry, the tested form may be a part): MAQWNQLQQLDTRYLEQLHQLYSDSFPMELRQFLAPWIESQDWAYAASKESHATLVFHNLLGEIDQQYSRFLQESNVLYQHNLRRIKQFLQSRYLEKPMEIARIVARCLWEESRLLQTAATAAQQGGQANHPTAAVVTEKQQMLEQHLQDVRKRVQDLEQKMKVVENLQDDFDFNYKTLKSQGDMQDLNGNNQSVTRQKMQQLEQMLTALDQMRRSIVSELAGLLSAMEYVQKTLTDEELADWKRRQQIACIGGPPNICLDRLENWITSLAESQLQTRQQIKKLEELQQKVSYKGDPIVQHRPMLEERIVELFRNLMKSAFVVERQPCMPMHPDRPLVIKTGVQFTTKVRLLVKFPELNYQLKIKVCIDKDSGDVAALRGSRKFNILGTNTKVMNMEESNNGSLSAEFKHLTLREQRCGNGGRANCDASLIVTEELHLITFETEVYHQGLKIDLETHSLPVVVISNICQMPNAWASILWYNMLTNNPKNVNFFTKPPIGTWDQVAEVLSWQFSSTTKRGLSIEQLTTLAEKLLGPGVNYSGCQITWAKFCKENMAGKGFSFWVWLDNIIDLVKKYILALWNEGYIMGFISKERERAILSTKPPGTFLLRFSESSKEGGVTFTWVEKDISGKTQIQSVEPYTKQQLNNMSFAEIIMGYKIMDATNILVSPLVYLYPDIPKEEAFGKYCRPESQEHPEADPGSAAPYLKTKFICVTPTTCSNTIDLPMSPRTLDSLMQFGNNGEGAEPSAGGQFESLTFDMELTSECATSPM

Row | Ratio IC50 [2] | SMILES | IC50 [1]
1 |  | CC(C)C[C@H](CCC(N)=O)NC(=O)[C@@H]1[C@@H]2C[C@@H]2CN1C(=O)[C@H](CC(C)C)NC(=O)/C=C/c1ccc(OP(=O)(O)O)cc1 | 1.63 µM
2 |  | CC(C)C[C@H](NC(=O)/C=C/c1ccc(OP(=O)(O)O)cc1)C(=O)N1C[C@H]2C[C@H]2[C@H]1C(=O)NCCCC(N)=O | 0.303 µM
3 |  | CC(C)C[C@H](NC(=O)/C=C/c1ccc(OP(=O)(O)O)cc1)C(=O)N1CCC[C@H]1C(=O)N[C@@H](CCC(N)=O)CN1CCN(C)CC1 | 1.31 µM
4 |  | CC(C)C[C@H](NC(=O)/C=C/c1ccc(OP(=O)(O)O)cc1)C(=O)N1CCC[C@H]1C(=O)N[C@@H](CCC(N)=O)C(C)C | 1.88 µM
5 |  | CC(C)C[C@H](NC(=O)/C=C/c1ccc(OP(=O)(O)O)cc1)C(=O)N1C[C@H]2C[C@H]2[C@H]1C(=O)N[C@H](C)CCC(N)=O | 0.175 µM
6 |  | CC(C)C[C@H](NC(=O)/C=C/c1ccc(OP(=O)(O)O)cc1)C(=O)N1C[C@H]2C[C@H]2[C@H]1C(=O)N[C@@H](CCC(N)=O)COCc1ccccc1 | 0.094 µM
7 |  | CC(C)C[C@H](NC(=O)/C=C/c1ccc(OP(=O)(O)O)cc1)C(=O)N1CCC[C@H]1C(=O)N[C@@H](CCC(N)=O)CN(Cc1ccccc1)Cc1ccccc1 | 1.08 µM
8 |  | CC(C)C[C@H](NC(=O)/C=C/c1ccc(OP(=O)(O)O)cc1)C(=O)N1CCC[C@H]1C(=O)NCCNC(N)=O | 0.131 µM
9 |  | CC(=O)NC[C@H](CCC(N)=O)NC(=O)[C@@H]1CCCN1C(=O)[C@H](CC(C)C)NC(=O)/C=C/c1ccc(OP(=O)(O)O)cc1 | 0.589 µM
10 |  | CC(C)C[C@H](NC(=O)/C=C/c1ccc(OP(=O)(O)O)cc1)C(=O)N1CCC[C@H]1C(=O)N[C@@H](CCC(N)=O)CN1CCOCC1 | 1.53 µM
11 |  | CC(C)C[C@H](NC(=O)/C=C/c1ccc(OP(=O)(O)O)cc1)C(=O)N1CCC[C@H]1C(=O)N[C@@H](CCC(N)=O)COC(N)=O | 0.615 µM
12 |  | CC(C)C[C@H](NC(=O)/C=C/c1ccc(OP(=O)(O)O)cc1)C(=O)N1CCC[C@H]1C(=O)NCCOC(N)=O | 0.36 µM
13 |  | CC(C)C[C@H](NC(=O)/C=C/c1ccc(OP(=O)(O)O)cc1)C(=O)N1C[C@H]2C[C@H]2[C@H]1C(=O)NCCOCc1ccccc1 | 0.069 µM
14 |  | CC(C)C[C@H](NC(=O)/C=C/c1ccc(OP(=O)(O)O)cc1)C(=O)N1CCC[C@H]1C(=O)N[C@H](CN)CCC(N)=O | 1.24 µM
15 |  | CC(C)C[C@H](NC(=O)/C=C/c1ccc(OP(=O)(O)O)cc1)C(=O)N1CCC[C@H]1C(=O)N[C@H](C)COC(N)=O | 0.797 µM
16 |  | CC(C)C[C@H](NC(=O)/C=C/c1ccc(OP(=O)(O)O)cc1)C(=O)N1CCC[C@H]1C(=O)N[C@H](COCc1ccccc1)COC(N)=O | 0.454 µM
17 |  | CC(C)C[C@H](NC(=O)/C=C/c1ccc(OP(=O)(O)O)cc1)C(=O)N1CCC[C@H]1C(=O)N[C@H](C)CNC(N)=O | 1.35 µM
18 |  | CC(C)C[C@H](NC(=O)/C=C/c1ccc(OP(=O)(O)O)cc1)C(=O)N1CCC[C@H]1C(=O)N[C@@H](CCC(N)=O)CN1CCCCC1 | 1.21 µM
19 |  | CC(C)C[C@H](NC(=O)/C=C/c1ccc(OP(=O)(O)O)cc1)C(=O)N1C[C@H]2C[C@H]2[C@H]1C(=O)N[C@@H](CCC(N)=O)[C@@H](C)OCc1ccccc1 (mixture of isomers) | 0.069 µM
20 |  | CCCC[C@H](CCC(N)=O)NC(=O)[C@@H]1CCCN1C(=O)[C@H](CC(C)C)NC(=O)/C=C/c1ccc(OP(=O)(O)O)cc1 | 1.35 µM
21 | 6 | CC(C)C[C@H](NC(=O)/C=C/c1ccc(OP(=O)(O)O)cc1)C(=O)N1CCC[C@H]1C(=O)N[C@H](C(=O)NCc1ccccc1)[C@@H](C)OC(N)=O | 
22 | 3 | CC(C)C[C@H](NC(=O)/C=C/c1ccc(OP(=O)(O)O)cc1)C(=O)N1CCC[C@H]1C(=O)N[C@@H](COC(N)=O)C(=O)NCc1ccccc1 | 
23 |  | CC(C)C[C@H](NC(=O)/C=C/c1ccc(OP(=O)(O)O)cc1)C(=O)N1C[C@H]2C[C@H]2[C@H]1C(=O)N[C@@H](CCC(N)=O)C(=O)NCc1ccccc1 | 0.068 µM
24 |  | CC(C)C[C@H](CCC(N)=O)NC(=O)[C@@H]1CCCN1C(=O)[C@H](CC(C)C)NC(=O)/C=C/c1ccc(OP(=O)(O)O)cc1 | 4.9 µM
25 |  | CC(C)C[C@H](NC(=O)/C=C/c1ccc(OP(=O)(O)O)cc1)C(=O)N1CCC[C@H]1C(=O)N[C@@H](CCC(N)=O)Cc1ccc(O)cc1 | 0.848 µM
26 |  | CC(C)C[C@H](NC(=O)/C=C/c1ccc(OP(=O)(O)O)cc1)C(=O)N1C[C@H]2C[C@H]2[C@H]1C(=O)N[C@@H](CCC(N)=O)C(C)C | 0.511 µM
27 |  | CC(C)C[C@H](NC(=O)/C=C/c1ccc(OP(=O)(O)O)cc1)C(=O)N1C[C@H]2C[C@H]2[C@H]1C(=O)N[C@@H](CCC(N)=O)[C@@H](C)O | 0.437 µM
